These results are taken from patent US8658638B2, “Mineralocorticoid receptor antagonist and methods of use” (priority 2009, dated 2014).

In assay [1] the test system is uni-nephrectomized Sprague Dawley rats. The experiment in a line: In vivo model of aldosterone mediated renal disease. Particulars: 10 mg/kg/day x 28 days, oral gavage, aldosterone infusion, 6% salt diet, rat. As to the method: Male uni-nephrectomized Sprague Dawley rats (240-280 g) are housed individually with ad lib house water and rodent 5001 diet for one week. After acclimation, baseline 24 h urine samples are collected and analyzed for total urine protein and creatinine. Animals are randomized via body weight and baseline urine protein into study groups. Baseline serum is taken by tail-clip and analyzed for blood urea nitrogen (BUN), creatinine, and electrolytes. After baseline samples are taken, all rats with the exception of the control group are maintained on a diet containing 6% salt, and drinking water containing 0.3% KCl throughout the study duration. […] Alza mini-pumps to deliver 2.5 μl/h×28 days of d-aldosterone in 0.01% DMSO at 0.75 μg/h, s.c. are implanted in non-control animals (e.g Test Compound group and Vehicle only group) under isoflourane anesthesia. Test compound, in a vehicle comprising 1% carboxy methylcellulose (CMC)/0.25% polysorbate 80, or vehicle alone, is then administered by once daily oral gavage (10 mL/kg) beginning the day after aldosterone implantation. Repeat urine samples are collected after 2 and 4 weeks of compound or vehicle alone administration and analyzed for total urine protein and creatinine. At study termination, pharmacokinetic samples are obtained at 8 timepoints (0.5, 1, 2, 3, 6, 8, 12 and 24 h). […]

Assay [2] deals with T1, human AR (androgen receptor) (Homo sapiens, UniProt P10275).
T1 construct: expressed in transfected cells; host or cells: HEK293 (293-AR lysate)
T1 sequence (P10275 1-920): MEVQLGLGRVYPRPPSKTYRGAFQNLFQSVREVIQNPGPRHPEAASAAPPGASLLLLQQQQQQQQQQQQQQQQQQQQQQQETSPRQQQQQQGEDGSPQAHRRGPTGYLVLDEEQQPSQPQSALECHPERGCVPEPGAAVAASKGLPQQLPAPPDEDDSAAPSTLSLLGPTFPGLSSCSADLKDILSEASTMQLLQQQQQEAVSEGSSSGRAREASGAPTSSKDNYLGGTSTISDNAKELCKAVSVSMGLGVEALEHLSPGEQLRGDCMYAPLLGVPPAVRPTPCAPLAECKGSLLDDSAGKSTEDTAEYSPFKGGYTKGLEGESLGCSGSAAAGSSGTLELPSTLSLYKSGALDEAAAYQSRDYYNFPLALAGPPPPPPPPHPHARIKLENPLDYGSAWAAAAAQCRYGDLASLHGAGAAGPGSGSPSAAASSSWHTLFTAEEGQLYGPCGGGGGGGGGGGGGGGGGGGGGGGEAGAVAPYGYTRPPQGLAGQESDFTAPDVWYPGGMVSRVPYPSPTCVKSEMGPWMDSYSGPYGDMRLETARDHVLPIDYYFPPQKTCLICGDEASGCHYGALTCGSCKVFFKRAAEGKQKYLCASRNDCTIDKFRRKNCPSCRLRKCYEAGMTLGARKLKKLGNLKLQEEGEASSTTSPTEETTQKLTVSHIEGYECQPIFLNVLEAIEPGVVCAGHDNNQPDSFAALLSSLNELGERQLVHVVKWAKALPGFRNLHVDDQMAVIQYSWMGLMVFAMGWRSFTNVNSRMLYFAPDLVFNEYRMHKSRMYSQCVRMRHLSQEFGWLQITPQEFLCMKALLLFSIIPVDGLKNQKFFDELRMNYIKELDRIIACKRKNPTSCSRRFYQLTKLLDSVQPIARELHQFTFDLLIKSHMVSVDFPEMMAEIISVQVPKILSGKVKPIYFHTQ
Put plainly: Steroid nuclear hormone receptor binding assay, AR. Particulars: [3H]-methyltrienolone, HEK293 lysate overexpressing human AR. As to the method: Cell lysates from human embryonic kidney HEK293 cells overexpressing human MR (mineralocorticoid receptor), GR (glucocorticoid receptor), AR (androgen receptor), or PR (progesterone receptor) are used for receptor-ligand competition binding assays to determine Ki values.
Briefly, steroid receptor competition binding assays are run in a buffer containing 20 mM HEPES buffer (pH=7.6), 0.2 mM EDTA, 75 mM NaCl, 1.5 mM MgCl2, 20% glycerol, 20 mM sodium molybdate, 0.2 mM DTT (dithiothreitol), 20 μg/mL aprotinin and 20 μg/mL leupeptin (assay buffer). Typically, steroid receptor binding assays include radio-labeled ligands, such as 0.25 nM [^3H]-aldosterone for MR binding, 0.7 nM [^3H]-dexamethasone for GR binding, 0.36 nM [^3H]-methyltrienolone for AR binding, and 0.29 nM [^3H]-methyltrienolone for PR binding, and either 20 μg 293-MR lysate, 20 μg 293-GR lysate, 22 μg 293-AR lysate, or 40 μg 293-PR lysate per well. Assays are typically run in 96-well format. Competing test compounds are added at various concentrations ranging from about 0.01 nM to 10 μM. Non-specific binding is determined in the presence of 500 nM aldosterone for MR binding, 500 nM dexamethasone for GR binding, or 500 nM methyltrienolone for AR and PR binding. […] After an incubation of 2 hours, plates are read in a Wallac Microbeta counter. […]

As usually defined, the Ki is a measure of affinity in units of concentration, obtained from inhibition or displacement. A lower Ki goes with a stronger hold on the target. On to `O=c1[nH]c2cc(/C=C3\c4ccccc4COc4cc(F)ccc43)ccc2n1[C@@H]1C[C@@H]2COCCN2C1` [Compound (I), 5-((E)-(3-fluorodibenzo[b,e]oxepin-11(6H)-ylidene)methyl)-1-((7R,8aR)-hexahydro-1H-pyrrolo[2,1-c][1,4]oxazin-7-yl)-1H-benzo[d]imidazol-2(3H)-one], for which the “reduction of urinary protein excretion compared to vehicle treated animals” value in assay [1] is listed as “about 60%”. The same compound showed a Ki in assay [2] of around 1170 nM.
